{"source": "patent US20080287526A1", "about": "“Pharmaceuticals for treating or preventing oral diseases” (HAWLEY & HAZEL (BVI) COMPANY LIMITED, priority 2007, published 2008)", "key": {"[1]": {"tested_on": "Actinomyces viscosus ATCC 27044", "assay": "Antibacterial MIC, micro-dilution method", "assay_type": "cell-based", "conditions": "minimum inhibitive concentration; 2-fold dilution series 250-0.12 mg/L, ceiling 250 ppm; 37 °C, 18-24 h; unit not given", "description": "(§1) A single colony was picked from the Trypticase Digested Soybean peptone agar blood plate (TSA5B) of ordinarily stored bacteria species and used to inoculate corresponding broth culture medium, which was cultivated in a microaerobic environment (P.g needs anaerobic cultivation) with 95% air, 5% CO2 at 37.0° C.±1.0° C., wherein S.m was cultivated for 18-24 h, and the remaining two species were cultivated for 40-48 h. Then corresponding broth cultivate medium was used to adjust the turbidity of the bacteria suspension to 0.5^# McFarland standard, equivalent to 1.0×10^8 CFU/mL.\n(§2) The operating steps were:\n(§3) a. Preparation of the stock solution of antibacterial pharmaceutical: 1% stock solution of various antibacterial pharmaceuticals was prepared with 100% pure ethanol as solvent. The prepared stock solution was filtered to eliminate bacteria, and was distributed into small portions to be used.\n(§4) b. Range of measured concentration: the present experiment used 250 ppm as the ceiling measured concentration of the anti-bacterial pharmaceutical.\n(§5) c. Measuring method: micro-dilution method.\n(§6) First, 100 μL broth medium was added to each well of the 96-well plate, then 100 μL sterile anti-bacteria pharmaceutical solution, which was diluted 10-fold (1000 mg/L), was added to each well of the first column. Then each well of the first column was mixed repeatedly for 7-8 times using a multi-channel micropipet, and 100 μL sample was transferred to the second column after sufficiently mixing the pharmaceutical with TSB. After being mixed similarly for 7-8 times, 100 μL sample was transferred to the third column, and likewise to the wells of the remaining columns. Thus the concentration of the pharmaceutical was gradiently diluted 2-fold between the columns, from 500 mg/L in the first column to 0.24 mg/L in the last column (the 12th column).\n(§7) The bacteria to be tested and the standard bacteria were prepared using the same method as above. […] 0.12 mg/L, and the final inoculation quantity was about […] or 5×10^6 bacteria in each well. […]"}, "[2]": {"tested_on": "Porphyromonas gingivalis ATCC 33277", "assay": "Antibacterial MIC, micro-dilution method", "assay_type": "cell-based", "conditions": "minimum inhibitive concentration; anaerobic; 2-fold dilution series 250-0.12 mg/L, ceiling 250 ppm; 37 °C, 18-24 h; unit not given", "description": "as §1, §2, §3, §4, §5, §6, §7"}, "[3]": {"tested_on": "Streptococcus mutans ATCC 25175", "assay": "Antibacterial MIC, micro-dilution method", "assay_type": "cell-based", "conditions": "minimum inhibitive concentration; 2-fold dilution series 250-0.12 mg/L, ceiling 250 ppm; 37 °C, 18-24 h; unit not given", "description": "as §1, §2, §3, §4, §5, §6, §7"}, "[4]": {"tested_on": "GM-CSF", "assay": "Anti-inflammatory effect in KB cells, LUMINEX analysis of GM-CSF", "assay_type": "cell-based, human", "conditions": "KB cell supernatant; the larger the value, the stronger the anti-inflammatory ability; test concentration not given", "description": "(§8) Anti-inflammatory activity was assessed using the KB cell (the epidermis cancer cell in human oral cavity). During the experiment, the KB cell inoculated in the cultivating plate was treated with or without positive control or compound Morusin A. After the treatment, the supernatant of the cultivating medium was collected and stored in −80° C. refrigerator. Inflammation was assessed by measuring several inflammation markers: Prostaglandin E2 (PGE2) in the supernatant was detected by Enzyme-linked immunosorbent assay, and LUMINEX™ multifunctional liquid-phase chip analysis system was used for the detection of granulocyte monocyte colony stimulating factor (GM-CSF), tumor necrosis factor-alpha (TNF-α), and interleukins 1-beta and 6 (IL-1β and IL-6).\n(§9) LUMINEX™ multifunctional liquid-phase chip analyses of GM-CSF, TNF-α, IL-1 and IL-6: The 96-well plate was enclosed with enclosing liquid for 30 minutes. Fluorescent microspheres were added into the 96-well plate after dilution. The standard and the samples to be measured were added, and incubated overnight at 4° C. The next day, the supernatant was discarded and 50 μL GM-CSF, TNF-α, IL-1β and IL-6 antibodies were added to each well. After being rinsed for 4 times, the 96-well plate was placed in a shaking table, which was in ambient temperature, to keep the plate away from light for one hour. […]"}, "[5]": {"tested_on": "IL-1β", "assay": "Anti-inflammatory effect in KB cells, LUMINEX analysis of IL-1β", "assay_type": "cell-based, human", "conditions": "KB cell supernatant; the larger the value, the stronger the anti-inflammatory ability; test concentration not given", "description": "as §8, §9"}, "[6]": {"tested_on": "IL-6", "assay": "Anti-inflammatory effect in KB cells, LUMINEX analysis of IL-6", "assay_type": "cell-based, human", "conditions": "KB cell supernatant; the larger the value, the stronger the anti-inflammatory ability; test concentration not given", "description": "as §8, §9"}, "[7]": {"tested_on": "TNF-α", "assay": "Anti-inflammatory effect in KB cells, LUMINEX analysis of TNF-α", "assay_type": "cell-based, human", "conditions": "KB cell supernatant; the larger the value, the stronger the anti-inflammatory ability; test concentration not given", "description": "as §8, §9"}}, "data": [{"smiles": "CC1=C[C@H]2c3c(O)cc(-c4cc5ccc(O)cc5o4)cc3O[C@]3(c4ccc(O)cc4O)Oc4cc(O)ccc4[C@H](C1)[C@@H]23", "note": "[Morusin A]", "values": [{"measurement": "MIC, A. v ATCC 27044", "setting": "[1]", "value": 3.9}, {"measurement": "MIC, P. g ATCC 33277", "setting": "[2]", "value": 15.6}, {"measurement": "MIC, S. m ATCC 25175", "setting": "[3]", "value": 3.9}, {"measurement": "anti-inflammatory effect, GM-CSF", "setting": "[4]", "value": 11, "unit": "%"}, {"measurement": "anti-inflammatory effect, IL-1β", "setting": "[5]", "value": 23, "unit": "%"}, {"measurement": "anti-inflammatory effect, IL-6", "setting": "[6]", "value": 53, "unit": "%"}, {"measurement": "anti-inflammatory effect, TNF-α", "setting": "[7]", "value": 93, "unit": "%"}]}]}
